Source: ChEMBL document CHEMBL1201862, “PubChem BioAssay data set” (2004)
Calls of active or inactive are those of the source.

Tests used:
Streptococcus = assay: GAS UMAA2166 growth inhibition – luminescence, BacTiterGlo, counter-screen for streptokinase expression inhibitor project, dose response (AID 1915); type: functional, organism-based;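 note: potency for reduction of bacterial viability or growth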
[1] = fluconazole-exposed Candida albicans growth modulators – fluorescence, retest, confirmation (AID 2467); type: functional, cell-based
[2] = system: Streptococcus sp. 'group A'; assay: Streptococcus pyogenes SK(-)GAS viability under kanamycin – luminescence, BacTiterGlo, confirmation, counter-screen for streptokinase expression inhibitor project, dose response (AID 1900); type: functional, organism-based
Streptokinase A = target: T1, Streptokinase A (Streptococcus pyogenes serotype M1, UniProt P10520); assay: viability-normalized secreted streptokinase activity reduction – plasminogen activation absorbance, OD405, dose response (AID 1914); type: functional, Streptococcus pyogenes M1 GAS;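 note: secreted streptokinase activity via plasminogen activation per viability signal from cell pellet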
T1 sequence (P10520 whole entry): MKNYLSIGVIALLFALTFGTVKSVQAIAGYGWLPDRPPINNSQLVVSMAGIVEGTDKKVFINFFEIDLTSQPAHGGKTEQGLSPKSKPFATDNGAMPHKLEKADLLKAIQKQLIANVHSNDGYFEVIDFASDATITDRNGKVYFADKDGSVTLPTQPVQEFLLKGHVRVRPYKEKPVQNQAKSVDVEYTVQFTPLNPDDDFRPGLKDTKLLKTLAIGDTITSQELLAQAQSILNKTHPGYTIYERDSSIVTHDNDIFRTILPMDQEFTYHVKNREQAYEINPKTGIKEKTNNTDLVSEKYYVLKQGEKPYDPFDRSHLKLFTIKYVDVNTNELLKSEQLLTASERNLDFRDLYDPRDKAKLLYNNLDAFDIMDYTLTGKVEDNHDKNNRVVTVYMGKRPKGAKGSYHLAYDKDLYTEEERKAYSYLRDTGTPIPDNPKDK

[3] = target: T2, Serine/threonine-protein phosphatase (Candida dubliniensis (strain CD36 / CBS 7987 / NCPF 3949 / NRRLY-17841) (Yeast), UniProt B9W6M3); assay: blockers of CaCl2-induced CDRE-lacZ signaling – S. cerevisiae, luminescence, secondary, dose response (AID 2388); type: functional, cell-based;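 note: yeast reporter cells carrying a calcineurin-responsive lacZ construct stimulated with calcium chloride; luminescent beta-galactosidase reporter signal in whole cells rather than isolated phosphatase activity; potency for inhibition where a drop in reporter signal means calcineurin blockade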
T2 sequence (B9W6M3 whole entry): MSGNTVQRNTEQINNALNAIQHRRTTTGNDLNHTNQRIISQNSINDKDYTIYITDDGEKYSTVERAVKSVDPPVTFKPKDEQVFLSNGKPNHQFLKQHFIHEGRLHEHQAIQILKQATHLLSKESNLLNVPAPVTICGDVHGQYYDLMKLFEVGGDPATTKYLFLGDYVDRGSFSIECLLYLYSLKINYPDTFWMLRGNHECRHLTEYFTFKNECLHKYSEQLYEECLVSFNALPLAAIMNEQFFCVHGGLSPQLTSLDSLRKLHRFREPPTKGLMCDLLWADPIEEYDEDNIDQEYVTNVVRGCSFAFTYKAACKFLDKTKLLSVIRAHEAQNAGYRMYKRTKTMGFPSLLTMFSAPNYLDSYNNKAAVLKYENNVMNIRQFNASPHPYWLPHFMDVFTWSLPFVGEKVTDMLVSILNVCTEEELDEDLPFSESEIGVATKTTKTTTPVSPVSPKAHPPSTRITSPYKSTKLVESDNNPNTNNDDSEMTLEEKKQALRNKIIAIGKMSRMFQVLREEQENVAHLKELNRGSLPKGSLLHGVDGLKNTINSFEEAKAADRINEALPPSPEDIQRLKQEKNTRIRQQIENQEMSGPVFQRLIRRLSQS

[4] = target: ATP-dependent molecular chaperone HSP82 (Candida albicans (strain WO-1) (Yeast), UniProt C4YTQ8); assay: steroid-induced GRE reporter decrease in yeast – S. cerevisiae, luminescence, Hsp90 inhibitor project, dose response (AID 2400); type: functional, cell-based;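 note: beta-galactosidase luminescence from glucocorticoid response element reporter as proxy for Hsp90 function; inhibitor potency where signal loss means Hsp90 inhibition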
ATP-dependent molecular chaperone HSP82, sequence (C4YTQ8 whole entry): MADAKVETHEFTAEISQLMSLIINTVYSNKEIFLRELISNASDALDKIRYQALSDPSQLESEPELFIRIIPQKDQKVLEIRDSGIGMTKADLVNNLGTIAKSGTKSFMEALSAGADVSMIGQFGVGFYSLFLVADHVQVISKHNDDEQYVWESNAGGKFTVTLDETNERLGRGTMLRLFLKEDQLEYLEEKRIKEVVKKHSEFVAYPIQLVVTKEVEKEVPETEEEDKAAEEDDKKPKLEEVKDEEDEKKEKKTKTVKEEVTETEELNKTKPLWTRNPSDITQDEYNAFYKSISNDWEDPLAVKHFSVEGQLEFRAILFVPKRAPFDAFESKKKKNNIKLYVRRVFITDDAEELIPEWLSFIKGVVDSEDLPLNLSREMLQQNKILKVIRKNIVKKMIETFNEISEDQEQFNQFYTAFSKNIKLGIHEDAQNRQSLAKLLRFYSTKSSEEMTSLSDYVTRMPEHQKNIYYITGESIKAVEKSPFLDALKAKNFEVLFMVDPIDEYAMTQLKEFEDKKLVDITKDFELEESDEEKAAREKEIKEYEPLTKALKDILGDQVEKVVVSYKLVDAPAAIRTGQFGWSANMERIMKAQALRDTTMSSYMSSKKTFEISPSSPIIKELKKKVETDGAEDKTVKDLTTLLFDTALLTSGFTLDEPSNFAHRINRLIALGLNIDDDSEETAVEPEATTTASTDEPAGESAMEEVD

[5] = NIH-3T3 fibroblast cytotoxicity, dose response, cytotoxicity control, cell-based, fluorescence, Alamar Blue, secondary assay (AID 2327); type: functional;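 note: NIH-3T3 mouse fibroblasts cultured with fluconazole at 8 µg/mL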
[6] = target: T3, Sentrin-specific protease 8 (Homo sapiens, UniProt Q96LD8); type: functional
T3 sequence (Q96LD8 whole entry): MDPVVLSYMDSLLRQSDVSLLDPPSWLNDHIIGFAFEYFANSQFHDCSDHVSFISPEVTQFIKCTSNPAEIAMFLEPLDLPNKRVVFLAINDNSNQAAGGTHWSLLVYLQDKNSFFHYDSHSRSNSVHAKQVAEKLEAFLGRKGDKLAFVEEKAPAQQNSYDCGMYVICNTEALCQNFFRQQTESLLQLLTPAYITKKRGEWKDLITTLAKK

[7] = target: T3, Sentrin-specific protease 8; type: functional; remark: listed apart in the source
[8] = general cell-killing toxicity readout – plate reader, dry powder samples, cytotoxicity control for PAX8 inhibitor project, dose response (AID 743021); type: functional, cell-based
[9] = target: T4, Small ubiquitin-related modifier 1 (Homo sapiens, UniProt P63165); assay: SUMO1 protein-protein binding blockers, potency – biochemical, FRET, dose response (AID 624383); type: functional; settings: read-out: IC50_Mean
T4 sequence (P63165 whole entry): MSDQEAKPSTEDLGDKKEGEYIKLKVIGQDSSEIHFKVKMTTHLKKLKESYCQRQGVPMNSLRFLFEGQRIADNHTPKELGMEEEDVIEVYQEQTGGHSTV

[10] = target: 26S proteasome non-ATPase regulatory subunit 14 (Homo sapiens, UniProt O00487); assay: inhibition of proteasome subunit RPN11 – biochemical, fluorescence polarization, uHTS hits, confirmation (AID 602368); type: functional
26S proteasome non-ATPase regulatory subunit 14, sequence (O00487 whole entry): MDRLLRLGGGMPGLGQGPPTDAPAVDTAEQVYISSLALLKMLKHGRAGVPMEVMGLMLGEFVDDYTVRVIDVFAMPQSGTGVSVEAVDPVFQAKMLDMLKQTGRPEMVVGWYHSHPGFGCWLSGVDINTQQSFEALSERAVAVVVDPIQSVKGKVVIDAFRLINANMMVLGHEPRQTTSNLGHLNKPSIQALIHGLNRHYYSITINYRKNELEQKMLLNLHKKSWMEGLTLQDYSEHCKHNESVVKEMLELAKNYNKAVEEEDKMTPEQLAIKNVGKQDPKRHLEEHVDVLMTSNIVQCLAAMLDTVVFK

H9c2 = assay: cells; type: functional, cell-based; settings: Rattus norvegicus, H9c2, Myocardium;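 note: confirmatory concentration-response retest of ultra-high-throughput screening hits for modulation of myocardial damage; cell death induced by hydrogen peroxide oxidative stress; compound pretreatment for 60 min then peroxide exposure for 2 h; potency is for protecting the cells against peroxide damage rather than for killing them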
[11] = target: T4, Small ubiquitin-related modifier 1; assay: SUMO1 protein interaction blockers, potency – biochemical, fluorescence polarization, uHTS hits, dose response (AID 624382); type: functional; settings: read-out: IC50_Mean
Prothrombin = Prothrombin (Bos taurus, UniProt P00735); assay: thrombin protease inhibitors – biochemical, fluorescence polarization, uHTS hits, dose response (AID 602369); type: functional
[12] = target: 72 kDa type IV collagenase (Homo sapiens, UniProt P08253); assay: Dose Response validation of uHTS RPN11 inhibitor hits using a MMP-2 Fluorescence assay.; type: functional
72 kDa type IV collagenase, sequence (P08253 whole entry): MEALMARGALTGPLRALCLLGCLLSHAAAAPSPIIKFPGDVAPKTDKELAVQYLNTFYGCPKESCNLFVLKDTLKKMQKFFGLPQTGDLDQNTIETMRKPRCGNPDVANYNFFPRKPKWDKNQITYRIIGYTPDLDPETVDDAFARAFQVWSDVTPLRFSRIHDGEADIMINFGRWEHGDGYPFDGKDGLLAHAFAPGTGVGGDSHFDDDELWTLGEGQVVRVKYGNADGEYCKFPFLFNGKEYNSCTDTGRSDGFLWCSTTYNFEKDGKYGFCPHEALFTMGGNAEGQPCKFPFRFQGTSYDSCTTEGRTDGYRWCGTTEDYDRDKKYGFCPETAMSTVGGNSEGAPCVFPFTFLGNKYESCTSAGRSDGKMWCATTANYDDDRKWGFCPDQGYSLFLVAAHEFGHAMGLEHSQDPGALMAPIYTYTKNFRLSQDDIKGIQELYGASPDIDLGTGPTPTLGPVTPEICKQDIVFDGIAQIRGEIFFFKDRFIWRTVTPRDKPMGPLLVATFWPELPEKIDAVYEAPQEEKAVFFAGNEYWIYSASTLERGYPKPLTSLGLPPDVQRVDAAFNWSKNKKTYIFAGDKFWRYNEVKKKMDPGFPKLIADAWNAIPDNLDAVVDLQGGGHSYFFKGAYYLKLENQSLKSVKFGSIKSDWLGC

[13] = target: T5, Apoptotic protease-activating factor 1 (Homo sapiens, UniProt O14727); assay: SAR analysis of small molecule Activators of Apaf-1 in a Fluorescent assay.; type: functional; settings: read-out: EC50_Mean;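 note: caspase-3 cleavage of fluorogenic Rh110 DEVD substrate downstream of apoptosome activation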
T5 sequence (O14727 whole entry): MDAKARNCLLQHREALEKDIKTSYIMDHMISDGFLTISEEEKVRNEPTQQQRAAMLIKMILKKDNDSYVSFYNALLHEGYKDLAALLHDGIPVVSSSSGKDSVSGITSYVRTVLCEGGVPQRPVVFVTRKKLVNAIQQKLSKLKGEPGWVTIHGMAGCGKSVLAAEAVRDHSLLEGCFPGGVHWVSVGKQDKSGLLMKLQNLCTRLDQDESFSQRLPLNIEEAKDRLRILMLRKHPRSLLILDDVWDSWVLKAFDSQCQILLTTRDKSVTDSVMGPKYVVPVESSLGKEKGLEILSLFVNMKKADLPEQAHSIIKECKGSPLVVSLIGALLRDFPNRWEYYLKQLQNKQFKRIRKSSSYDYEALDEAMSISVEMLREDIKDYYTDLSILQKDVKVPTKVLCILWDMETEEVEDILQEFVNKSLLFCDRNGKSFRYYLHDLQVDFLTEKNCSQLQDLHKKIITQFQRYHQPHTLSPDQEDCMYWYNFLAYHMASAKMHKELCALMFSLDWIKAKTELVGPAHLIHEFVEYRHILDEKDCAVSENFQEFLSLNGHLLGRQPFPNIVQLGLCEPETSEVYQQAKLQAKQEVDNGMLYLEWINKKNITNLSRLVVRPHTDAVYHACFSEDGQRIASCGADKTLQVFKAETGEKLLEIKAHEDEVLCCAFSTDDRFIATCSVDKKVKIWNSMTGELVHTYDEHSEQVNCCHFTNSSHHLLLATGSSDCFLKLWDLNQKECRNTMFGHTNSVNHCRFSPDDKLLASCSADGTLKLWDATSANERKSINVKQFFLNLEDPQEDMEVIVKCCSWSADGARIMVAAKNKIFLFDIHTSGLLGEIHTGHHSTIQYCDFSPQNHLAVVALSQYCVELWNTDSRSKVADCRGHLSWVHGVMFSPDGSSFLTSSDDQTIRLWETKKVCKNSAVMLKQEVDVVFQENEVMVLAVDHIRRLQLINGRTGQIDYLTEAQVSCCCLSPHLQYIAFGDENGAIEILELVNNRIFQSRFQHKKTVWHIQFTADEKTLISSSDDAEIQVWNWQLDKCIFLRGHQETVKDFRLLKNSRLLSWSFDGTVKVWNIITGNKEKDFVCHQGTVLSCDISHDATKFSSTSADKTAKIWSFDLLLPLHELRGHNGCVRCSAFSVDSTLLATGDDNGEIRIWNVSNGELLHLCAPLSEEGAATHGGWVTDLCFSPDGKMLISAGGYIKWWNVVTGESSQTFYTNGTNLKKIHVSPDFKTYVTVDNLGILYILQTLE

[14] = target: T6, Corticotropin-releasing factor receptor 2/Corticotropin-releasing factor-binding protein (Homo sapiens, UniProt P24387+Q13324); assay: activators of CRF receptor 2 with binding protein – uHTS hits, confirmation (AID 602473); type: functional; settings: read-out: EC50_Mean
T6 sequence (Q13324 whole entry): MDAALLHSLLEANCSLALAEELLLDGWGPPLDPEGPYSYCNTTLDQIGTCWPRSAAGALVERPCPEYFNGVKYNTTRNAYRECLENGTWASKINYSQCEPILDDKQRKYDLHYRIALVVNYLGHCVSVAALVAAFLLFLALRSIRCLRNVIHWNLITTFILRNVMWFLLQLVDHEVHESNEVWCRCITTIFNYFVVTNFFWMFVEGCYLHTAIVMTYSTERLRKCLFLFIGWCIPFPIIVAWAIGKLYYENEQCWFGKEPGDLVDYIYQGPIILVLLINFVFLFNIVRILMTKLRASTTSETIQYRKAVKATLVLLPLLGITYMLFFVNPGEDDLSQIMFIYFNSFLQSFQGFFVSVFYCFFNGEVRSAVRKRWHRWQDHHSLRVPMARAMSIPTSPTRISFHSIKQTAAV
T6 sequence (P24387 whole entry): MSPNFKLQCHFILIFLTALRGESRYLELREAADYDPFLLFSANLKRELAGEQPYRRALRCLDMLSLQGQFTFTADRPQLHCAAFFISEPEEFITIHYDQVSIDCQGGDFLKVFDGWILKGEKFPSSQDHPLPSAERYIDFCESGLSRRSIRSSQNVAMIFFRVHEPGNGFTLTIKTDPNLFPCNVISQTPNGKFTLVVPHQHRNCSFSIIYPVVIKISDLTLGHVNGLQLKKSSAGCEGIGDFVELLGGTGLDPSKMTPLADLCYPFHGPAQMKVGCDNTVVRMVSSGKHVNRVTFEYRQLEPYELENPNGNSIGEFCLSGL

cells [15] = type: functional, cell-based
cells [16] = type: functional, cell-based; remark: listed apart in the source
[17] = off-target signal loss in HeLa-CEM21 co-culture – HeLa F-luc CTL cells, cherry-picked, counter-screen for HIV-1 Env fusion inhibitor project, dose response (AID 652040); type: functional, cell-based;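 note: potency for signal decrease marking cytotoxic or nonspecific inhibition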
[18] = viability loss in CEM21 cells – cell-based, CellTiter-Glo luminescence, cherry-picked, cytotoxicity control for viral fusion inhibitor project, dose response (AID 652042); type: functional;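 note: potency for signal decrease meaning cytotoxicity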
[19] = blockers of HIV-1 envelope-mediated cell-cell fusion – cherry-pick, dose response (AID 652057); type: functional, cell-based
[20] = HIV-1 AD8 envelope cell-cell fusion blockers – cherry-pick, dose response (AID 652062); type: functional, cell-based;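 note: luciferase signal from cell-cell fusion driven by HIV-1 clade B AD8 Env; potency is for inhibitors of fusion seen as a drop in luminescence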
[21] = blockers of HIV-1 ZM109 envelope-driven cell-cell fusion – HeLa effector, CEM target cells, luciferase, cherry-pick, dose response (AID 652058); type: functional, cell-based;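 note: luciferase signal from HIV-1 Env mediated cell-cell fusion of effector and target cells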
[22] = target: T7, Low molecular weight phosphotyrosine protein phosphatase (Homo sapiens, UniProt P24666); type: functional; settings: read-out: IC50_Mean;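 note: Dose-response confirmation assay measuring inhibition of LMPTP enzyme activity by fluorescence intensity read-out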
T7 sequence (P24666 whole entry): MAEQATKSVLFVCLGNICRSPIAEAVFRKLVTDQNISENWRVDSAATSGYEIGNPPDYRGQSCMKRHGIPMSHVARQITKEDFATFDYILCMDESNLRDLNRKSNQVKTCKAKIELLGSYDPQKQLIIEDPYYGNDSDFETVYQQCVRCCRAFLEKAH

O=C(Nc1nnc(-c2ccncc2)o1)c1ccc2ccccc2c1
EC50 (Streptococcus): 19.5 µM (active) | EC50 [1]: 1.47 µM (active) | EC50 [2]: 6.52 µM (active) | EC50 (Streptokinase A): > 150 µM (not active) | EC50 [3]: > 180 µM (inactive) | EC50 [4]: > 150 µM (inactive) | EC50 [5]: > 150 µM (inactive)

O=C(Nc1nnc(-c2ccco2)o1)c1cccc(Cl)c1
EC50 [1]: 1.33 µM (active) | EC50 [3]: > 180 µM (inactive) | EC50 [4]: > 150 µM (inactive) | EC50 [5]: > 150 µM (inactive)

CC(=O)Nc1ccc(NC(=O)COC(=O)c2ccc([N+](=O)[O-])o2)cc1
IC50 [6]: 7.03 µM (active) | IC50 [7]: 11.8 µM (active)

C[C@@H]1CCCCO[C@H](CN(C)C)[C@H](C)CN([C@@H](C)CO)C(=O)c2cc(NS(=O)(=O)c3ccc(Cl)cc3)ccc2O1
AC50 [8]: 1.71 µM (active)

COc1cc(/C=N/NC(=O)c2cccnc2)ccc1OCC(=O)Nc1ccccc1Cl
IC50 [9]: 100 µM (inactive) | IC50 [10]: 47 µM (active) | IC50 (H9c2): > 79 µM (inactive) | IC50 [11]: > 66.6 µM (inactive) | IC50 (Prothrombin): > 100 µM (inactive) | IC50 [12]: > 100 µM (inactive)

CCOC(=O)C1(C)Oc2ccccc2NC1=O (stereo not given)
EC50 [13]: > 100 µM (inactive)

CCOC(=O)Cc1csc(NC(=O)CSc2nnc(-c3ccncc3)o2)n1
EC50 [14]: > 53 µM (inactive) | EC50 [1]: 0.517 µM (active) | EC50 [3]: > 180 µM (inactive) | EC50 [4]: > 150 µM (inactive) | EC50 [5]: > 150 µM (inactive)

O=C(c1nc2ccccn2c1CNCC1OCCc2ccccc21)N1CCOCC1 (stereo not given)
IC50 (cells [15]): > 29.9 µM (inactive) | EC50 (cells [16]): > 29.9 µM (inactive)

COC(=O)[C@]12C[C@H](CC(=O)NCc3ccc(C)o3)C(=O)N(CCC3=CCCCC3)C1=C[C@H](C(C)(C)C)O[C@@H]2C
AC50 [17]: 1.71 µM (active) | AC50 [18]: 20.3 µM (active) | AC50 [19]: 1.28 µM (active) | AC50 [20]: 2.73 µM (active) | AC50 [21]: < 0.26 µM (active)

COC(=O)c1coc(-c2cnc(OC)nc2)n1
EC50 [13]: > 100 µM (inactive)

O=C(NCCN1CCCC1)c1ccc(Cn2c(=S)[nH]c3cc4c(cc3c2=O)OCO4)cc1
IC50 [22]: 27.2 µM (inactive)

O=C(c1cccc(C(F)(F)F)c1)N1CCc2c([nH]c3ccccc23)C1C(F)(F)F (stereo not given)
AC50 [17]: 1.88 µM (active) | AC50 [18]: 50.8 µM (active) | AC50 [19]: 5.55 µM (active) | AC50 [20]: 1.19 µM (active) | AC50 [21]: 0.66 µM (active)
